These results are taken from PMC12583827, “Harnessing microbial-derived metabolites in the urinary tract to prevent infection induced catheter encrustation” (Nature Communications, 2025).

“Also recorded” adds a separate entry of the source. Counter-ions that a name gives are not always drawn. Like-named read-outs stand apart in the source and are kept apart here.

For data set [1], the target named is T1, P. mirabilis urease (Proteus mirabilis, UniProt P17086).
T1 construct: it utilizes whole bacterial cells, rather than isolated enzyme preparations; endogenous in cells; host or cells: Proteus mirabilis HI4320, live whole cells
T1 sequence (P17086 whole entry): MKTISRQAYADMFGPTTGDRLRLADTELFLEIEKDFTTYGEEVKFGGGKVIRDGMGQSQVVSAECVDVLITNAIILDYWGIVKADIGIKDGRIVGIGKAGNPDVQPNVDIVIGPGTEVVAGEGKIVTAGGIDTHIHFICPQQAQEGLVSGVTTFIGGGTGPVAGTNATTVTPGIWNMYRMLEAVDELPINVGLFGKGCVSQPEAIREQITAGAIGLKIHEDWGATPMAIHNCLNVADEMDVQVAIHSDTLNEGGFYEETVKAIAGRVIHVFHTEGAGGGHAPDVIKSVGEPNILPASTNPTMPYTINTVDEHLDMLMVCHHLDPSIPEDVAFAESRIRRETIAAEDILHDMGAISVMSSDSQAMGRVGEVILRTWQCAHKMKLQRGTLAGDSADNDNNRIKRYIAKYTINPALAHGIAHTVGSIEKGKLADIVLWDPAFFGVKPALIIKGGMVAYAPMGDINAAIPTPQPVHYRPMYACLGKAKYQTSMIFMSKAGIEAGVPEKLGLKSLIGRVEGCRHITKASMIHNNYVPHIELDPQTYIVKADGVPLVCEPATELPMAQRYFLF
T1 sequence (P17088 whole entry, further chain): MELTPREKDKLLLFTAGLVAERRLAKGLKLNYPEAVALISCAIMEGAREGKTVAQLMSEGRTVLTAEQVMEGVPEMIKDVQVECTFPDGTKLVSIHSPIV
T1 sequence (P17087 whole entry, further chain): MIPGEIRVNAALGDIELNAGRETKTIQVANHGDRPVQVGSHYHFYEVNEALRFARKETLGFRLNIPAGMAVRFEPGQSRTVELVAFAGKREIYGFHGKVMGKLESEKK
Format: cell-based. The following applies: for Urease dampening activity: screen of candidate metabolites, * Trending but not statistically significant; for effect on P. mirabilis urease activity (whole cell): potassium phosphate buffer, dose response.
Procedure: (§1) Urease activity was measured as described previously in triplicate with at least three biological replicates[21]. Briefly, bacteria were cultured for ~18 h in LB broth, concentrated to an OD600 of 4, washed once in saline, and diluted (1:10 for P. mirabilis and 1:50 for P. stuartii and M. morganii) into candidate dampening metabolites in potassium phosphate buffer or human urine pH7 and supplemented with 500 mM urea and 0.01% phenol red. Bacterial suspensions were distributed into a 96-well plate, incubated at 37 °C with double-orbital shaking in a Synergy H1 plate reader (BioTek), and absorbance (OD562) was measured every 60 seconds for 180 minutes. Isogenic urease mutants (Supplementary Data 1) served as negative controls for P. mirabilis and P. stuartii and a vehicle control served as a negative control for M. morganii.

The target in data set [2] is T2, urease of P. mirabilis HI4320 cell free extracts (Proteus mirabilis, UniProt P17086).
T2 construct: 20ul of cell-free extract were distributed into a 96-well plate in place of the whole cell bacterial suspensions; endogenous in cells; host or cells: Proteus mirabilis HI4320, urea-induced; freeze-thaw and sonication lysate, clarified supernatant
T2 sequence (P17088 whole entry): as the sequence (P17088 whole entry, further chain) above
T2 sequence (P17086 whole entry): as the sequence (P17086 whole entry) above
T2 sequence (P17087 whole entry, further chain): as the sequence (P17087 whole entry, further chain) above
The data set is classed as biochemical. The procedure: To measure urease activity of the cell free extracts of P. mirabilis, P. mirabilis was cultured for ~18 h in LB broth and then sub cultured until it reached mid-log growth phase (OD600 0.2-0.5). Cultures were spun down to pellet at 10,000 rcf for 10 minutes and resuspended in saline to a final OD600 of 1.0. Cultures were then diluted 1:10 in potassium phosphate buffer pH7 supplemented with 500 mM urea and incubated at 37 °C with shaking for 1 h to induce its urease enzyme production. The isogenic urease mutant Pm ureF::kan (Supplementary Data 1) served as negative control. Cultures then were spun down to pellet at 10,000 rcf for 10 minutes and resuspended in 2 mL saline. Cultures were subjected to four cycles of freezing in liquid nitrogen and thawing in a 37 °C water bath. Cultures were then probe sonicated (on ice) at 25% amplitude for 10 sec. Sonicated cultures were centrifuged at 18,900 Xg for 5 min and supernatants were transferred to a clean tube and stored on ice. To measure urease activity of cell free extracts, the previously described assay was modified such that 20ul of cell-free extract were distributed into a 96-well plate in place of the whole cell bacterial suspensions. Acetohydroxamic acid (AHA), was used as a positive control. Percent of maximum urease activity was calculated using Area Under the Curve (AUC) relative to untreated cell free extracts of P. mirabilis.

The target of data set [3] is T3, Jack Bean Urease (JBU) (Canavalia ensiformis, UniProt P07374).
T3 construct: purchased Sigma-Aldrich
T3 sequence (P07374 whole entry, looked up): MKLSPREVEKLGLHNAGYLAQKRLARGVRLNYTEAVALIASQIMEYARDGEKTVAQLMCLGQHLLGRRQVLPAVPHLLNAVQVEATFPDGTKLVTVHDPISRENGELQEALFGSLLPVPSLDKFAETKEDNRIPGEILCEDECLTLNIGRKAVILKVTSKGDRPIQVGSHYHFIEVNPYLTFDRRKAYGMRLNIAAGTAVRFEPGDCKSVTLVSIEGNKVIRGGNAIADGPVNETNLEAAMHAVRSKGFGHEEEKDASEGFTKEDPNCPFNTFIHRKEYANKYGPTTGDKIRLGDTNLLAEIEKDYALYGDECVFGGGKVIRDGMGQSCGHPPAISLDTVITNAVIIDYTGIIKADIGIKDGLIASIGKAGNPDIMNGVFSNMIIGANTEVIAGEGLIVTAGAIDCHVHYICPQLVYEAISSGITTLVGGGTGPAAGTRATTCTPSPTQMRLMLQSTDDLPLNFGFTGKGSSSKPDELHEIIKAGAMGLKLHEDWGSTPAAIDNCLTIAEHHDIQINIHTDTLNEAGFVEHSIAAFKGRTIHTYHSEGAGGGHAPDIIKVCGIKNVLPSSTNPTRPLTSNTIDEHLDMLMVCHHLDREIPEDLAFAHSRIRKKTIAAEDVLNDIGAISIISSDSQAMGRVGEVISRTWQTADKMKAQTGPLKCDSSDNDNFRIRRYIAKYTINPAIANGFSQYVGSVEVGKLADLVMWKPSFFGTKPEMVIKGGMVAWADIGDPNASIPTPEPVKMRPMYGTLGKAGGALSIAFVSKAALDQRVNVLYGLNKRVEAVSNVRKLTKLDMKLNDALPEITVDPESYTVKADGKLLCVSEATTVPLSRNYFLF
The data set is classed as biochemical. The following applies: 0.1 U JBU, 500 mM urea. The procedure: To measure Jack Bean urease activity, the previously described assay was modified such that 0.1 U (1U liberates 1 µmol of ammonia from urea per minute) of JBU (Sigma-Aldrich urease from Canavalia ensiformis) were distributed into a 96-well plate in place of the bacterial suspensions. Acetohydroxamic acid (AHA), was used as a positive control and a vehicle control was used as a negative control. Percent of maximum urease activity was calculated using Area Under the Curve (AUC) relative to untreated bacteria of interest or untreated JBU. Urease activity measurement in MRSA was adapted from a recently published semi quantitative assay (See Supplementary materials for details)[48].
414 Supplementary Figure 13. Microbial metabolites dampen activity of purified Jack Bean
415 Urease (JBU). 0.1 U of JBU (1U liberates 1 µmol of ammonia from urea per minute) was
416 incubated at 37 °C with shaking in urease-dampening metabolites, 500mM urea, and phenol red.
417 A urea analogue, AHA, served as the positive control for inhibition of JBU. Absorbance
418 (OD562) was measured every 60 seconds for 90 minutes, and activity is expressed as percent of
419 maximum activity (% Max Activity) relative to untreated JBU. Graphs show mean±SD for 3
420 independent experiments with 3 technical replicates each. Data were analyzed by two tailed one
421 sample t-test to a hypothetical value of 100% activity. ***P<0.001, **P<0.002, *P<0.033.
(1 picture or pasted object on this page, not shown here)

Data set [4] deals with T4, urease of P. mirabilis cell free extracts (Proteus mirabilis, UniProt P17086).
T4 construct: 20ul of cell-free extract were distributed into a 96-well plate in place of the whole cell bacterial suspensions; endogenous in cells; host or cells: Proteus mirabilis HI4320, urea-induced; freeze-thaw and sonication lysate, clarified supernatant
T4 sequence (P17086 whole entry): as the sequence (P17086 whole entry) above
T4 sequence (P17088 whole entry, further chain): as the sequence (P17088 whole entry, further chain) above
T4 sequence (P17087 whole entry, further chain): as the sequence (P17087 whole entry, further chain) above
Format: biochemical. The following applies: for type of urease inhibition: Michaelis-Menten parameters, Lineweaver-Burke plot. How it is done: For the kinetic analysis of the urease reaction in the presence of urease dampening metabolites, urease activity assays were repeated with the P. mirabilis cell free extracts. Six different inhibitor concentrations that gave linear rates of reaction over a period of 120 min were tested for their effects on urease activity in the presence of urea concentrations ranging from 0 to 500 mM. Simple linear regression was performed on the absorbance (OD562) over 120 minutes for each condition and plotted as Initial velocity (slope) vs urea concentration. These initial hyperbolic plots were converted to double-reciprocal Lineweaver-Burke plots, and the pattern of inhibition inferred from the point of intersection of the lines. Finally, the Ki for a particular compound was determined by plotting the Km/Vmax ratio (the slope of the Lineweaver-Burke plots) of each line as a function of the inhibitor concentration as described by ref. [49]. The X-intercept corresponded to –Ki.

A short description of data set [5]: Buffering capacity assay (NaOH titration, phenol red). The data set is classed as physicochemical. The following applies: high concentrations of metabolite in potassium phosphate buffer with phenol red. The procedure:
Known concentrations of sodium hydroxide were added to each well of a 96 well plate in combination with candidate dampening metabolite of interest buffered 1:10 in potassium phosphate buffer pH7. 0.01% phenol red was added to each well, and absorbance (OD562) was measured in a Synergy H1 plate reader (BioTek).

Data set [6] deals with T1, P. mirabilis urease. The data set is classed as cell-based. As to conditions: for Compound 1 %I alone: kphos. The procedure: To assess the synergistic effects of dampening metabolites when used in combination with each other, P. mirabilis urease activity was measured as described above. Between 4-6 different concentrations for each dampening metabolite were tested both alone and in combination (See Fig. 6a for example). […] To account for variability between experiments, all conditions tested were performed on a single 96-well plate with three technical replicates for each condition. To compare between biologic replicates, percent inhibition relative to untreated P. mirabilis was calculated for each condition using the average area under the curve over 120-180 minutes (so that the positive control activity curve saturated without any increase in the negative control curve).
Statistical analysis was conducted using a one sample T test of the combination index compared to a hypothetical value of 1 (additive effect). […] Therefore, combination indexes were calculated using a desired effect size less than 40% were indicated with an * in Fig. 6b and in Supplementary Data 5.

In data set [7] the test system is P. mirabilis catheter biofilms. Briefly: Antibiotic testing in the in vitro “bladder” model. The data set is classed as cell-based, Proteus mirabilis. The following applies: 1ug/mL ceftriaxone added at 24 h. The procedure:
The glass “bladder” system assembly, inoculation and sample collection were performed as described above. At 24 h post inoculation glass “bladders” were supplied with media containing the same metabolite (or AUM only control) with or without 1 µg/mL ceftriaxone sodium salt hydrate (Cayman Chemical Company, Michigan, USA). Samples were then collected from the catheter port at 27, 30, 33, 36 and 48 h to monitor pH and bacterial CFUs. After 48 h, the catheters were carefully removed, sectioned and assessed for bacterial viability as detailed in Supplementary Methods.

Data set [8] deals with P. mirabilis urease operon (ureABC, ureEDF). Briefly: Real-time quantitative PCR of urease operon. The data set is classed as cell-based, Proteus mirabilis. The following applies: 15-minute incubation, 500 mM urea. How it is done: P. mirabilis was cultured for ~18 h in LB broth and then sub cultured until it reached mid-log growth phase (OD600 0.2-0.5). Cultures were spun down to pellet at 10,000 rcf for 10 minutes and resuspended in saline to a final OD600 of 1.0. Cultures were then diluted 1:10 into dampening metabolites buffered 1:10 in potassium phosphate buffer pH7 and supplemented with 500 mM urea. P. mirabilis in potassium phosphate buffer without urea served as a negative control. Cultures were incubated in potassium phosphate buffer with and without dampening metabolites at 37 °C with shaking for 15 minutes. RNA isolation, cDNA synthesis and RT qPCR were performed as described previously. […] A RNA integrity analysis using agarose gel electrophoresis on extracted RNA was performed for all samples to confirm no change in transcript stability (Supplementary Fig 16A). The data were analyzed according to the Relative Quantification (RQ) method by Pfaffl et al. 2001[54] (See Supplementary Information).
168 Real-time quantitative PCR analysis. The data were analyzed according to the Relative
169 Quantification (RQ) method by Pfaffl et al 2001 (56) in which P. mirabilis potassium phosphate
170 buffer without urea was considered as the ‘Control’ and P. mirabilis in potassium phosphate
171 buffer supplemented with 500mM urea with and without candidate dampening compounds were
172 the ‘Sample.’ The full equation is below.
(E )ΔCPtarget (control−sample)
174 Relative Quantification Ratio = target Equation 2
(Ereference)ΔCPreference (control−sample)
176 In this equation, E refers to the primer efficiency of the target gene (Etarget, urease operon
177 subunits) or the reference gene (Ereference, rpoA), and CP refers to the Cycle Point, or the cycle
178 number at which the signal exceeds the threshold. […]
183 for whole genome sequencing on the Illumina NextSeq2000 platform. Read trimming, and run
184 analytics were performed using Trimmomatic v0.39.0 (62). The processed reads were assembled
185 using spades v3.15.5 (63) wrapped in Unicycler v0.5.0 (64, 65). Read mapping was done using […]

In data set [9] the test system is M. morganii urease. Briefly: Urease activity assay, whole cell M. morganii TA43. Format: cell-based, Morganella morganii.
Procedure: as §1
The subject of data set [10] is P. stuartii urease. Briefly: Urease activity assay, whole cell P. stuartii BE2467. The data set is classed as cell-based, Providencia stuartii.
Procedure: as §1
The subject of data set [11] is UTI MRSA urease. Briefly: UTI MRSA urease activity assay. Format: cell-based, Staphylococcus aureus. As to conditions: whole cell, urease broth. How it is done:
190 Omega and visualization was carried out using ESPript 3.0 (69), enabling comparison across
191 different clinical isolates. Urease genes, including the full operon from ureA to ureR, were
192 identified and extracted from the prokka annotated genomes. The extracted protein sequences
193 were subjected to sequence alignment using Clustal Omega and visualization was carried out
194 using ESPript 3.0 [8], enabling comparison across different clinical isolates.
195 UTI MRSA urease activity assay. The UTI MRSA urease assay was adapted from a recently-
196 published semi quantitative assay to measure urease activity in bacterial species with low overall
197 activity under standard conditions (50). Dampening metabolites were directly dissolved in urease
198 broth (1 g tryptone (RPI; CAS No. 91079-40-2), 1 g D(+)-glucose (RPI; CAS No. 50-99-7), 2 g
199 potassium phosphate monobasic anhydrous (VWR; Lot: 20C1356567), 5 g sodium chloride
201 of MilliQ water, pH 5.5, sterilized via autoclaving). UTI MRSA strains from overnight cultures
202 were harvested by centrifugation for 5 minutes at 10,000 g, washed with 1 volume of 1X
203 Phosphate Buffered Saline (PBS), and resuspended in urease broth. Bacterial cultures were […]
205 measured at 415 nm, 560 nm, and 600 nm every 20 mins for 24 hours, shaking at 37°C using a
206 BioTek Synergy|H1 microtiter plate reader. Urease activity was calculated by dividing the OD […]

Where [12] appears, read: highest concentration tested 20mM.

In the case of `O=C(O)[C@@H](O)Cc1cnc[nH]1` [L-imidazole lactate, L-imidazolelactic acid], in data set [1] (setting [12]), the Urease dampening activity entry is “Yes”. Moreover, in [2], the “urease activity of cell free P. mirabilis extracts” value was “at least partially inhibiting”. Further, the JBU activity entry in data set [3] was “inhibited”. In data set [4], the “change of estimated Km on addition of metabolite” value is “increase”, the “change of estimated Vmax on addition of metabolite” value is given as “decrease” and the “type of urease inhibition” value is “mixed inhibitors”. The “buffering capacity: absorbance (OD562) across NaOH concentrations” value in data set [5] is “consistent reduction in absorbance compared to the control”. In data set [6] (Compound 1 [] alone 25, assay date 2024 08 07), the “Compound 1 %I alone” value is reported as 36.6%. In addition, the “Compound 1 %I alone” value in [6] (Compound 1 [] alone 37.5, assay date 2024 08 09) amounted to 56.9%. Further, the “Compound 1 %I alone” value in [6] (Compound 1 [] alone 50, assay date 2024 08 07) turned out to be 58.1%.
As to `CO/N=C(\C(=O)N[C@@H]1C(=O)N2C(C(=O)O)=C(CSc3nc(=O)c(=O)[nH]n3C)CS[C@H]12)c1csc(N)n1` [ceftriaxone, ceftriaxone sodium salt hydrate], the “AUM pH compared to the control “bladder”” value in data set [7] is listed as “no impact on pH”. Moreover, the “reduction in CFU/mL by the end of the experiment” value in data set [7] (effluent, 48 h) stood at 3 log.
On to `c1c[nH]cn1` [imidazole, Imidazole], for which, in data set [1] (biosynthetic pathway/functional group screen, highest concentration tested 20mM), the Dampens urease activity entry is reported as “Yes”. In addition, the “effect on P. mirabilis urease activity (whole cell)” value in data set [1] is “additional hits”. For the same compound, the “urease activity of cell free P. mirabilis extracts” value in data set [2] is recorded as “at least partially inhibiting”. For the same compound, the JBU activity result in [3] is listed as “inhibited”. Moreover, in data set [4], the “change of estimated Km on addition of metabolite” value is reported as “increase”, the “change of estimated Vmax on addition of metabolite” value is listed as “decrease” and the “type of urease inhibition” value is “mixed inhibitors”. Besides, the “buffering capacity: absorbance (OD562) across NaOH concentrations” value in [5] is on record as “consistent reduction in absorbance compared to the control”.
In the case of `O=C(O)C(=O)Cc1ccccc1` [phenylpyruvate, Sodium phenylpyruvate monohydrate], in [1], the “effect on P. mirabilis urease activity (whole cell)” value is on record as “reproducibly decreased; also recorded: only modest activity”. Also, the Urease dampening activity entry in data set [1] (setting [12]) is “Yes”. Besides, in [3], the JBU activity result is “did not inhibit; also recorded: no activity”. The “ureE and ureF transcript levels” value in data set [8] is recorded as “modestly increased”. Further, in [9], the “urease activity in M. morganii” value is on record as “no activity”. Further, the “urease activity in P. stuartii” value in data set [10] was “no activity”. The “urease activity in MRSA” value in [11] is listed as “most potent urease inhibition”. In data set [6], the “concentrations required to achieve a significant combination index” value is recorded as more than 50 mM.
